Results from patent publication US12441774B2, “Molecular guide system peptides and uses thereof” (SRI International, priority 2017, dated 2025).
“Also recorded” adds a separate entry of the source. Where a SMILES comes first, the peptide text is derived from it. Primed or numbered codes have the meaning given here. Where no end group is shown, it is not given here. [ ]: non-standard residue; d: D form. PEG11 = NCCOCCOCCOCCOCCOCCOCCOCCOCCOCCOCCOCCC(=O)O; PEG11′ = not defined here

Columns and labels:
[1] = system: non-small cell lung cancer cells; test: Cellular location of MGS, non-small cell lung cancer cells; assay type: cell-based; settings: Intracellular = uptake confirmed, exact compartment not determined
From the text: (§1) The FOX-Three Platform has already been validated for targeting of cells and subcellular components. A number of validated MGSs are in various stages of development (Tables 1 and 2) for a variety of cell targeting systems. Methods of conjugating a variety of payloads to the peptide MGSs have been established without disrupting their targeting ability. […] While cell targeting has been established and there are a number of competing antibody-based technologies for targeting the surfaces of target cells, intracellular MGSs were not previously known. […] For example, delivery of a MAb intended to bind to proteins involved in DNA replication in the cell nucleus will be therapeutically ineffective if trapped in the Golgi or other locations in the cell. The FOX-Three screening process was recently refined to include subcellular location targeting as a selection criteria. MGSs have been isolated that accumulate in lysosomes, autophagosomes, and Golgi inside cancer cells, as well as target the plasma membrane (FIG. 3).

Lymphoma Cells = test: Cellular location of MGS, lymphoma cells; assay type: cell-based
From the text: as §1

Dendritic Cells = test: Cellular location of MGS, dendritic cells; assay type: cell-based; settings: Intracellular = uptake confirmed, exact compartment not determined
From the text: as §1

cellular receptor = test: Receptor recycle vs new receptor synthesis in MGS internalization; assay type: cell-based
EphA2 [2] = target: T1, EphA2 (Homo sapiens, UniProt P29317); test: MGS_H1299.2 V4 binding to purified EphA2; settings: EphA2 study
T1 construct: endogenous in cells
From the text: (§2) The cellular receptor for MGS_H1299.2 v4 is EphA2. The following results were obtained during a study on EphA2.

EphA2 [3] = target: T1, EphA2; test: EphA2 dependence of MGS_H1299.2 V4 cell binding and internalization; assay type: cell-based
From the text: as §2

NSCLC cell lines = test: Cellular uptake kinetics of valency versions of HCC15.2; assay type: cell-based; settings: 4 NSCLC cell lines
Cardiomyocytes = test: Cellular location of MGS, cardiomyocytes; assay type: cell-based; settings: Intracellular = uptake confirmed, exact compartment not determined
From the text: as §1

viable cells in culture = test: Cellular uptake of MGS-conjugated MAb (flow cytometry); assay type: cell-based
Description: Peptide MGS with a biotin tag (“handle”) was coupled to an anti-biotin antibody. The antibody was labeled with a fluorescent tag. Panel A. MGS peptide-antibody was incubated with viable cells in culture. Uptake of the antibody into the cells was determined by flow cytometry and normalized to antibody uptake with no MGS peptide. Panel B. Uptake of the antibody was determined by fluorescent microscopy and is indicated by red “dots” in the left panel. The MGS peptide can deliver the antibody to the desired location. Using a MGS peptide that internalizes and directs cargo to the Golgi apparatus in the cell, an antibody was delivered to that subcellular compartment. Panel C. MGS peptide-Antibody was injected I.V. into a tumor bearing mouse. At set times points, near-infrared imaging was used to determine uptake of the antibody in the tumor.
A small peptidic-MGS delivers a large monoclonal antibody into a cell in vitro and in vivo. Small peptides would not be able to carry a MAb that is almost greater than 60-times its molecular weight. Cells were treated with a MAb alone and no cellular uptake occurred. But when that MAb was conjugated to one of the identified MGS peptides, a […] increase in cellular uptake was seen.
Peptidic-MGSs can deliver a MAb and increases cellular uptake by 20-380 (FIG. 4A). Peptidic-MGS can deliver a MAb to a discrete subcellular location as dictated by the MGS. […]

cancer cell = test: Delivery of cell impermeable protein-toxin, cancer cell death; assay type: cell-based; settings: peptide delivering a cell impermeable protein-toxin
From the text: (§3) The peptide EHPWFNMWSWATQVQE (SEQ ID NO:38) (H2009.2) has been pushed forward first.

[4] = system: non-small cell lung cancer cells; test: Binding to non-small cell lung cancer cells versus normal control cells; assay type: cell-based
From the text: as §3

T1 sequence (P29317 24-976, species assumed): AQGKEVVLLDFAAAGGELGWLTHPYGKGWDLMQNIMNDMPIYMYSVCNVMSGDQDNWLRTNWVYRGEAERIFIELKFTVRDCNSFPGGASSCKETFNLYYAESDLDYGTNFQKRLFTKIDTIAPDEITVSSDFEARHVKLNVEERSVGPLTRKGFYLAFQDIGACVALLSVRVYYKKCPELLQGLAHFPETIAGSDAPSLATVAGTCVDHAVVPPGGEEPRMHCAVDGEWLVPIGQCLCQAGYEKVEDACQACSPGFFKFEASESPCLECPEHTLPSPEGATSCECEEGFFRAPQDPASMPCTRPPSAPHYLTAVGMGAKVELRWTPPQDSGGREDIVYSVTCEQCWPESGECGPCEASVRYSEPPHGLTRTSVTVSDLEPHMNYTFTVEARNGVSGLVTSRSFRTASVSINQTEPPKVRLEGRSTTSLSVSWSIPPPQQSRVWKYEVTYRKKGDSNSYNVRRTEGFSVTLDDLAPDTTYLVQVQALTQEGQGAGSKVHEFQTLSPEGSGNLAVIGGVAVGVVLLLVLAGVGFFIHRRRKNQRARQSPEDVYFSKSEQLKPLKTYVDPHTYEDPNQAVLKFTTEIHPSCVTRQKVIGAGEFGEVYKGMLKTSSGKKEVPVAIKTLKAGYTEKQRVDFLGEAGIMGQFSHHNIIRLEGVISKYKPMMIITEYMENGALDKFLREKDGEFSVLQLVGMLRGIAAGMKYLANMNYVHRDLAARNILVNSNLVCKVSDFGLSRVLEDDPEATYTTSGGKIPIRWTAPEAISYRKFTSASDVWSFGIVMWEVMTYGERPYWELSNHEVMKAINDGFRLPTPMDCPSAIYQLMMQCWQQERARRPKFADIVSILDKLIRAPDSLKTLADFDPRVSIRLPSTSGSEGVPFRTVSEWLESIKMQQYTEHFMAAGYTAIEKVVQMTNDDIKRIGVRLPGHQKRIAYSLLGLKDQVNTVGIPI

Compound | Cellular Location [1] | other results
FEEFYSRQSNTIPYPQQYKG [MGS_H2009.5] | MGS_H2009.5_ER/Lysosome | –
KSREHVNNSACPSKRITAAL [MGS_A20.2] | – | Cellular Location (Lymphoma Cells): MGS_A20.2_Plasma Membrane
EAMNSAEQSAAVVQWEKRRI [MGS_H460.1] | MGS_H460.1_PlasmaMembrane | –
MDGATWWTQLDPLLVWEGET [MGS_H1993.5] | MGS_H1993.5_Intracellular | –
GPEDTSRAPENQQKTFHRRW [MGS_XS52.1] | – | Cellular Location (Dendritic Cells): MGS_XS52.1_Intacellular
CH3CO—FHAVPQSFYT—PEG11—C—NH2 (Ac-FHAVPQSFYT[PEG11′]C-NH2) [HCC15.2 v8] | – | fate of the bound cellular receptor upon internalization (cellular receptor): primarily degraded upon internalization
CH3CO—LQWRRNFGVWARYRL—PEG11—C—NH2 (Ac-LQWRRNFGVWARYRL[PEG11′]C-NH2) [HCC15.1 v4] | – | fate of the bound cellular receptor upon internalization (cellular receptor): primarily degraded upon internalization
VSQTMRQTAVPLLWFWTGSL [MGS_H1299.1] | MGS_H1299.1_Intracellular | –
CC(=O)N[C@@H](Cc1ccc(O)cc1)C(=O)N[C@@H](C)C(=O)N[C@@H](C)C(=O)N[C@@H](Cc1c[nH]c2ccccc12)C(=O)N1CCC[C@H]1C(=O)N[C@@H](C)C(=O)N[C@@H](CO)C(=O)NCC(=O)N[C@@H](C)C(=O)N[C@@H](Cc1c[nH]c2ccccc12)C(=O)N[C@H](C(=O)NCCOCCOCCOCCOCCOCCOCCOCCOCCOCCOCCOCCC(=O)N[C@@H](CS)C(N)=O)[C@@H](C)O [MGS_H1299.2 V4, CH3CO—YAAWPASGAWT—PEG11—C—NH2] (Ac-YAAWPASGAWT[PEG11]C-NH2) | – | competition with EprhrinA1 for binding (EphA2 [2]): compete for binding; fate of the bound cellular receptor upon internalization (cellular receptor): primarily degraded upon internalization; EphA2 internalization and co-localization (EphA2 [3]): induces EphaA2 internalization and co-localizes with the receptor in lysosome; peptide binding to cells (EphA2 [3]; increasing EphA2 in cells): increases MGS_H1299.2 V4 binding; peptide binding to cells (EphA2 [3]; reduction of EphA2 in cells): abrogates MGS_H1299.2 V4 binding
FHAVPQSFYTAP [MGS_HCC15.2] | MGS_HCC15.2_Intracellular | change of peptide affinity with valency (NSCLC cell lines; dimer): significant enhancement of peptide affinity with dimerization; change of peptide affinity with valency (NSCLC cell lines; tetramer): modest improvement upon tetramerization
AHTIDDEWASYHMQQWNSPP [MGS_H2009.4] | MGS_H2009.4_Golgi/ER | –
RGDLATLRQLAQEDGVVGVR [MGS_H2009.1] | MGS_H2009.1_Golgi | –
CH3CO—RGDLATLRQL—PEG11—YC—NH2 (Ac-RGDLATLRQL[PEG11′]YC-NH2) [MGS_H2009.1 v4] | – | fate of the bound cellular receptor upon internalization (cellular receptor): rapidly recycled back to the cell surface
YPGSPTQYPSSMHEYHSSSE [MGS_H2009.3] | MGS_H2009.3_Lysosome | –
YAAWPASGAWTGTAPCSAGT [MGS_H1299.2] | MGS_H1299.2_Intracellular | –
SADWFQGPAEWLLEGWMGPL [MGS_H1993.6] | MGS_H1993.6_Intracellular | –
TWTDFGQWPWPFGAEGTRAF [MGS_H1993.4] | MGS_H1993.4_Pre-mitotic cells only | –
ATEPRKQYATPRVFWTDAPG [MGS_HCC15.1] | MGS_HCC15.1_Intracellular | –
LQWRRDDNVHNFGVWARYRL (Ac-LQWRRDDNVHNFGVWARYRL) [MGS_1299.3] | MGS_1299.3_Lysosome/; also recorded: Autophagosomes | –
FAAKRAEWWDPGQLWDAVWN [MGS_H1993.2] | MGS_H1993.2_Intracellular | –
QEALEEWFWKMMPWSGPSGQ [MGS_H1993.3] | MGS_H1993.3_Intracellular | –
SVEYWGERMYYDVMESLGFS [MGS_H1993.1] | MGS_H1993.1_Lysosome | –
SAKTAVSQRVWLPSHRGGEP [MGS_A20.1] | – | Cellular Location (Lymphoma Cells): MGS_A20.1_PlasmaMembrane
WLSEAGPVVTVRALRGTGSW [MGS_PCM.1] | – | Cellular Location (Lymphoma Cells): MGS_PCM.1_Plasma Membrane; Cellular Location (Cardiomyocytes): MGS_PCM.1_Intracellular
EHPWFNMWSWATQVQE [MGS_H2009.2] | MGS_H2009.2_Lysosome | intracellular delivery of MAb (viable cells in culture): delivers a MAb intracellularly; potency to induce cell death (cancer cell): 80 nM; cell binding specificity [4]: binds to 3 different non-small cell lung cancer cells with minimal binding to normal control cells
MTVCNASQRQAHAQATAVSL [MGS_A549.1] | MGS_A549.1_Intracellular | –
